{"source": "EPA's ToxValDB 9.5 (doi:10.2903/j.efsa.2019.5595)", "key": {"Typhlodromus pyri": {"system": "Typhlodromus pyri", "assay": "LR50; higher = less toxic", "conditions": "acute; mortality"}, "Oncorhynchus mykiss": {"system": "Oncorhynchus mykiss", "conditions": "acute; duration: 96 hours; oral; feed; mortality"}, "Apis mellifera": {"system": "Apis mellifera", "conditions": "acute, duration: 48 hours, mortality"}, "Hyalella azteca": {"system": "Hyalella azteca", "conditions": "acute; duration: 96 hours; mortality"}, "Oryctolagus sp.": {"system": "Oryctolagus sp.", "conditions": "developmental; development"}, "Cyprinodon variegatus": {"system": "Cyprinodon variegatus", "conditions": "acute; duration: 96 hours; oral; feed; mortality"}, "Tagia sp.": {"system": "Tagia sp.", "conditions": "acute; duration: 14 days; mortality"}, "Bibionidae": {"system": "Bibionidae", "conditions": "chronic/long-term; duration: 29 days"}, "Lepomis macrochirus": {"system": "Lepomis macrochirus", "conditions": "acute; oral; feed; mortality"}, "Cyprinus carpio": {"system": "Cyprinus carpio", "conditions": "chronic/long-term"}}, "data": [{"smiles": "N#CN=C1SCCN1Cc1ccc(Cl)nc1", "note": "[Thiacloprid]", "values": [{"measurement": "LR50", "setting": "Typhlodromus pyri", "result": 0.331, "unit": "g/ha"}, {"measurement": "LC50", "setting": "Oncorhynchus mykiss", "result": "> 90.1", "unit": "µg/mL"}, {"measurement": "LD50", "setting": "Apis mellifera; dermal", "result": 38.8, "unit": "µg/piece"}, {"measurement": "LD50", "setting": "Apis mellifera; oral, unspecified", "result": 17.3, "unit": "µg/piece"}, {"measurement": "LC50", "setting": "Hyalella azteca", "result": "> 47.6", "unit": "µg/mL"}, {"measurement": "NOAEL", "setting": "Oryctolagus sp.", "result": 2, "unit": "mg/kg-day"}, {"measurement": "NOAEL", "setting": "Serinus canaria; acute, oral, unspecified, mortality", "result": 15, "unit": "mg/kg-day"}, {"measurement": "LD50", "setting": "Serinus canaria; chronic/long-term", "result": 3.5, "unit": "mg/kg-day"}, {"measurement": "LC50", "setting": "Cyprinodon variegatus", "result": 19.7, "unit": "µg/mL"}, {"measurement": "LC50", "setting": "Tagia sp.", "result": 105, "unit": "mg/kg"}, {"measurement": "NOEC", "setting": "Bibionidae", "result": 0.63, "unit": "µg/kg"}, {"measurement": "LD50", "setting": "Rattus norvegicus; acute, oral, Fischer 344, mortality", "result": 177, "unit": "mg/kg-day"}, {"measurement": "NOAEL", "setting": "Rattus norvegicus; chronic, histopathology: nonneoplastic", "result": 1.2, "unit": "mg/kg-day"}, {"measurement": "NOAEL", "setting": "Rattus norvegicus; developmental, development", "result": 2, "unit": "mg/kg-day"}, {"measurement": "NOAEL", "setting": "Rattus norvegicus; reproduction developmental, reproduction", "result": 3.3, "unit": "mg/kg-day"}, {"measurement": "LC50", "setting": "Lepomis macrochirus", "result": "> 78.6", "unit": "µg/mL"}, {"measurement": "NOEC", "setting": "Cyprinus carpio", "result": 4.5, "unit": "µg/L"}]}]}
